Measurements reported in patent US20220402916A1, “SMALL MOLECULE INHIBITORS OF KRAS G12C MUTANT” (Merck Sharp & Dohme Corp., priority 2019, published 2022).

Biological target: T1, Biotinylated KRAS G12C protein (Homo sapiens, UniProt P01116, C118S/C51S/C80L/G12C)
T1 construct: 183 amino acids; biotin on K10
Assay: SOS-catalyzed nucleotide exchange assay
Format: biochemical
Details: for IC50: apparent potency, preincubation time of 60 minutes prior to addition of SOS; for inhibition at 10 µM: 10,000 nM, 60 minutes of preincubation prior to addition of SOS
Procedure: Compounds are added to this complex, and then after 60 minute incubation time the mixture is treated with recombinant SOS protein and unlabeled GTP. Small molecule inhibitors stabilize the Bodipy-GDP complex whereas the untreated protein rapidly exchanges Bodipy-GDP for unlabeled GTP resulting in reduced TR-FRET signal. […] This mixture is then further diluted to 90 nM in an assay buffer (20 mM HEPES, 150 mM sodium chloride, 10 mM magnesium chloride, and 0.005% Tween) containing 15 nM of Terbium-Streptavidin (Invitrogen, catalog #PV3577) and 900 nM of Bodipy-GDP and incubated at room temperature for six hours. […] Each test compound (10 mM stock in DMSO) is diluted in DMSO to make a 10-point, 3-fold dilution series in a 384-well low dead volume microplate (Labcyte, catalog #LP-0200). Once titrations are made, 10 nL of the diluted compounds is acoustically dispensed into a 384-well assay plate (Corning, catalog #3820) using an Echo 550 (Labcyte). […] Each well then receives 3 μL of 240 nM recombinant human SOS protein and 9 mM GTP (Sigma, G8877) in assay buffer and is incubated at room temperature for 60 minutes. The time-resolved fluorescence resonance energy transfer signal for the assay plate is measured on an Envision (PerkinElmer) plate reader: Excitation filter=340 nm; emission1=495 nm; emission2=520 nm; dichroic mirror=D400/D505; delay time=100 μs. The signal of each well is determined as the ratio of the emission at 520 nm to that at 495 nm. […] The apparent effect as a function of compound concentration is fit to a four parameter logistic equation.

T1 sequence (P01116 with tags, fused parts or gaps isoform P01116-2 G12C/C51S/C80L/C118S): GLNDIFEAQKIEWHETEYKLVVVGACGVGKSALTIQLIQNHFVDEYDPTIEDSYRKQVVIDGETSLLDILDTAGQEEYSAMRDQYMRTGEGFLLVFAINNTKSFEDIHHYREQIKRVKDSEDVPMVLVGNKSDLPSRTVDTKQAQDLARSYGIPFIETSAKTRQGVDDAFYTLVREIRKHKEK

Row | SMILES | IC50 [nM] | inhibition at 10 µM [%]
1 | C=CC(=O)N1CCN(c2cc(C(=O)N3CCCCC3CN(C)C)nc3c2CCN(c2cccc4cccc(C)c24)C3)CC1 (racemic) [Compound 47, rac-1-(4-(2-(2-((dimethylamino)methyl)piperidine-1-carbonyl)-7-(8-methylnaphthalen-1-yl)-5,6,7,8-tetrahydro-1,7-naphthyridin-4-yl)piperazin-1-yl)prop-2-en-1-one] | 7750 | 
2 | C=CC(=O)N1CCN(c2cc(C(=O)N(C)C3CCN(C)C3)nc3c2CCN(c2cccc4cccc(C)c24)C3)CC1 (racemic) [Compound 51, rac-4-(4-acryloylpiperazin-1-yl)-N-methyl-7-(8-methylnaphthalen-1-yl)-N-(1-methylpyrrolidin-3-yl)-5,6,7,8-tetrahydro-1,7-naphthyridine-2-carboxamide] |  | 36
3 | C=CC(=O)N1CCN(c2cc(C(=O)NC3CCCN(C)C3)nc3c2CCN(c2cccc4cccc(C)c24)C3)CC1 (racemic) [Compound 52, rac-4-(4-acryloylpiperazin-1-yl)-7-(8-methylnaphthalen-1-yl)-N-(1-methylpiperidin-3-yl)-5,6,7,8-tetrahydro-1,7-naphthyridine-2-carboxamide] | 5500 | 
4 | C=CC(=O)N1CCN(c2cc(C(=O)NC3CCCCN(C)C3)nc3c2CCN(c2cccc4cccc(C)c24)C3)CC1 (racemic) [Compound 53, rac-4-(4-acryloylpiperazin-1-yl)-N-(1-methylazepan-3-yl)-7-(8-methylnaphthalen-1-yl)-5,6,7,8-tetrahydro-1,7-naphthyridine-2-carboxamide] | 5360 | 
5 | C=CC(=O)N1CCN(c2cc(C(=O)NCC3CN(C)CCO3)nc3c2CCN(c2cccc4cccc(C)c24)C3)CC1 (racemic) [Compound 55, rac-4-(4-acryloylpiperazin-1-yl)-N-((4-methylmorpholin-2-yl)methyl)-7-(8-methylnaphthalen-1-yl)-5,6,7,8-tetrahydro-1,7-naphthyridine-2-carboxamide] |  | 31
6 | C=CC(=O)N1CCN(c2cc(C(=O)NCC3CCCN(C)C3)nc3c2CCN(c2cccc4cccc(C)c24)C3)CC1 (racemic) [Compound 56, rac-4-(4-acryloylpiperazin-1-yl)-7-(8-methylnaphthalen-1-yl)-N-((1-methylpiperidin-3-yl)methyl)-5,6,7,8-tetrahydro-1,7-naphthyridine-2-carboxamide] | 3650 | 
7 | C=CC(=O)N1CCN(c2cc(C(=O)NCCC3CCCN3C)nc3c2CCN(c2cccc4cccc(C)c24)C3)CC1 (racemic) [Compound 57, rac-4-(4-acryloylpiperazin-1-yl)-7-(8-methylnaphthalen-1-yl)-N-(2-(1-methylpyrrolidin-2-yl)ethyl)-5,6,7,8-tetrahydro-1,7-naphthyridine-2-carboxamide] | 3410 | 
8 | C=CC(=O)N1CCN(c2cc(C(=O)NCC3CCN(C)C3)nc3c2CCN(c2cccc4cccc(C)c24)C3)CC1 (racemic) [Compound 58, rac-4-(4-acryloylpiperazin-1-yl)-7-(8-methylnaphthalen-1-yl)-N-((1-methylpyrrolidin-3-yl)methyl)-5,6,7,8-tetrahydro-1,7-naphthyridine-2-carboxamide] | 2480 | 
9 | C=CC(=O)N1CCN(c2cc(C(=O)NCCN3CCCC3)nc3c2CCN(c2cccc4ccccc24)C3)CC1 [Compound 1, 4-(4-acryloylpiperazin-1-yl)-7-(naphthalen-1-yl)-N-(2-(pyrrolidin-1-yl)ethyl)-5,6,7,8-tetrahydro-1,7-naphthyridine-2-carboxamide] | 3920 | 
10 | C=CC(=O)N1CCN(c2cc(C(=O)NCCN(C)C)nc3c2CCN(c2cccc4ccccc24)C3)CC1 [Compound 2, 4-(4-acryloylpiperazin-1-yl)-N-(2-(dimethylamino)ethyl)-7-(naphthalen-1-yl)-5,6,7,8-tetrahydro-1,7-naphthyridine-2-carboxamide] | 3150 | 
11 | C=CC(=O)N1CCN(c2cc(C(=O)NCCCN(C)C)nc3c2CCN(c2cccc4ccccc24)C3)CC1 [Compound 4, 4-(4-acryloylpiperazin-1-yl)-N-(3-(dimethylamino)propyl)-7-(naphthalen-1-yl)-5,6,7,8-tetrahydro-1,7-naphthyridine-2-carboxamide] | 9400 | 23
12 | C=CC(=O)N1CCN(c2cc(C(=O)NCCN3CCOCC3)nc3c2CCN(c2cccc4ccccc24)C3)CC1 [Compound 9, 4-(4-acryloylpiperazin-1-yl)-N-(2-morpholinoethyl)-7-(naphthalen-1-yl)-5,6,7,8-tetrahydro-1,7-naphthyridine-2-carboxamide] |  | 33
13 | C=CC(=O)N1CCN(c2cc(C(=O)NCCN(C)C)nc3c2CCN(c2cccc4cccc(C)c24)C3)CC1 [Compound 13, 4-(4-acryloylpiperazin-1-yl)-N-(2-(dimethylamino)ethyl)-7-(8-methylnaphthalen-1-yl)-5,6,7,8-tetrahydro-1,7-naphthyridine-2-carboxamide] | 826 | 
14 | C=CC(=O)N1CCN(c2cc(C(=O)N[C@@H](C)CN(C)C)nc3c2CCN(c2cccc4cccc(C)c24)C3)CC1 [Compound 14, (S)-4-(4-acryloylpiperazin-1-yl)-N-(1-(dimethylamino)propan-2-yl)-7-(8-methylnaphthalen-1-yl)-5,6,7,8-tetrahydro-1,7-naphthyridine-2-carboxamide] | 614 | 
15 | C=CC(=O)N1CCN(c2cc(C(=O)N(C)CCN(C)C)nc3c2CCN(c2cccc4cccc(C)c24)C3)CC1 [Compound 15, 4-(4-acryloylpiperazin-1-yl)-N-(2-(dimethylamino)ethyl)-N-methyl-7-(8-methylnaphthalen-1-yl)-5,6,7,8-tetrahydro-1,7-naphthyridine-2-carboxamide] |  | 33
16 | C=CC(=O)N1CCN(c2cc(C(=O)NC(C)(C)CN(C)C)nc3c2CCN(c2cccc4cccc(C)c24)C3)CC1 [Compound 17, 4-(4-acryloylpiperazin-1-yl)-N-(1-(dimethylamino)-2-methylpropan-2-yl)-7-(8-methylnaphthalen-1-yl)-5,6,7,8-tetrahydro-1,7-naphthyridine-2-carboxamide] |  | 16
17 | C=CC(=O)N1CCN(c2cc(C(=O)NCC(C)(C)CN(C)C)nc3c2CCN(c2cccc4cccc(C)c24)C3)CC1 [Compound 22, 4-(4-acryloylpiperazin-1-yl)-N-(3-(dimethylamino)-2,2-dimethylpropyl)-7-(8-methylnaphthalen-1-yl)-5,6,7,8-tetrahydro-1,7-naphthyridine-2-carboxamide] |  | 37
18 | C=CC(=O)N1CCN(c2cc(C(=O)N[C@H](C)CN3CCOCC3)nc3c2CCN(c2cccc4cccc(C)c24)C3)CC1 [Compound 24, (R)-4-(4-acryloylpiperazin-1-yl)-7-(8-methylnaphthalen-1-yl)-N-(1-morpholinopropan-2-yl)-5,6,7,8-tetrahydro-1,7-naphthyridine-2-carboxamide] | 1490 | 
19 | C=CC(=O)N1CCN(c2cc(C(=O)NC3(CN(CC)CC)CC3)nc3c2CCN(c2cccc4cccc(C)c24)C3)CC1 [Compound 26, 4-(4-acryloylpiperazin-1-yl)-N-(1-((diethylamino)methyl)cyclopropyl)-7-(8-methylnaphthalen-1-yl)-5,6,7,8-tetrahydro-1,7-naphthyridine-2-carboxamide] | 187 | 
20 | C=CC(=O)N1CCN(c2cc(C(=O)N[C@H]3CCCC[C@@H]3N)nc3c2CCN(c2cccc4cccc(C)c24)C3)CC1 [Compound 30, 4-(4-acryloylpiperazin-1-yl)-N-((1S,2S)-2-aminocyclohexyl)-7-(8-methylnaphthalen-1-yl)-5,6,7,8-tetrahydro-1,7-naphthyridine-2-carboxamide] | 4900 | 
21 | C=CC(=O)N1CCN(c2cc(C(=O)N[C@@H]3CCCC[C@H]3N)nc3c2CCN(c2cccc4cccc(C)c24)C3)CC1 [Compound 31, 4-(4-acryloylpiperazin-1-yl)-N-((1R,2R)-2-aminocyclohexyl)-7-(8-methylnaphthalen-1-yl)-5,6,7,8-tetrahydro-1,7-naphthyridine-2-carboxamide] | 426 | 
22 | C=CC(=O)N1CCN(c2cc(C(=O)N3CCC[C@H]3CN3CCCC3)nc3c2CCN(c2cccc4cccc(C)c24)C3)CC1 [Compound 41, (S)-1-(4-(7-(8-methylnaphthalen-1-yl)-2-(2-(pyrrolidin-1-ylmethyl)pyrrolidine-1-carbonyl)-5,6,7,8-tetrahydro-1,7-naphthyridin-4-yl)piperazin-1-yl)prop-2-en-1-one] | 9590 | 
23 | C=CC(=O)N1CCN(c2cc(C(=O)N3CCC[C@@H]3CN3CCCC3)nc3c2CCN(c2cccc4cccc(C)c24)C3)CC1 [Compound 42, (R)-1-(4-(7-(8-methylnaphthalen-1-yl)-2-(2-(pyrrolidin-1-ylmethyl)pyrrolidine-1-carbonyl)-5,6,7,8-tetrahydro-1,7-naphthyridin-4-yl)piperazin-1-yl)prop-2-en-1-one] | 3770 | 
